# Assay results: patent US20060052282A1, “Diagnostic and therapeutic means for pathologies associated with alpha 2 subunit of the na, k pump” (priority 2002, published 2006)
# What was measured:
# HEK293 = experiment: Ouabain treatment of transfected HEK293 cells; assay type: cell-based, human; conditions: 1 μM ouabain; pA2Oua^r-wt versus mock transfected cells
# Method: (§1) As all vertebrate cells present Na,K ATPase activity, the endogenous Na,K pump activity of HeLa cells was quenched to test the ion transport performance of the exogenous mutant forms. A site-directed mutagenesis was carried out to abolish the natural ouabain sensitivity of the ATP1A2 construct by mutagenizing two amino acids, Q116R and N127D, in the first extracellular loop that is part of the ouabain binding site of Na,K ATPase (15).
# HeLa cells = experiment: Ouabain treatment of transfected HeLa cells (survival, MTT cell viability); assay type: cell-based, human; conditions: 1 μM ouabain
# Method: Constructs were transfected by calcium phosphate (HeLa cells) following standard procedures or by Lipofectamine (COS-7 cells), (Gibco, Invitrogene Co., Carlsbad, Calif., USA).
# Cell viability was measured with the MTT (13) reduction assay after 12, 24, 36, 48 and 60 hours. Each experiment was made in triplicate and statistical analysis was done by Student's t-test (homoscedastic).
# as §1
# Constructs were transfected by calcium phosphate (HeLa cells) following standard procedures.
# Cell viability was measured with the MTT reduction assay after 24,48 and 72 hours of 1 μM ouabain challenge. We performed two independent experiments and in each experiment, datapoints are in triplicate.
structure (smiles),measurement,setting,value
C[C@@H]1O[C@@H](O[C@H]2C[C@@H](O)[C@]3(CO)[C@H]4[C@H](O)C[C@]5(C)[C@@H](C6=CC(=O)OC6)CC[C@]5(O)[C@@H]4CC[C@]3(O)C2)[C@H](O)[C@H](O)[C@H]1O [ouabain],cell survival in ouabain-containing media compared with HeLa,HEK293,Identical results
same,cell survival in ouabain-containing media,HeLa cells; HeLa cells transfected with ouabain-resistant ATP1A2 construct pA2Oua^r-wt,can survive and grow
same,cell survival under ouabain treatment,HeLa cells; HeLa cells transfected with ouabain-resistant T378N (AHC) ATP1A2 construct,did not survive
same,cell survival under ouabain treatment,HeLa cells; HeLa cells transfected with pA2Oua^r-P764 (L764P),failed to survive
same,cell survival under ouabain treatment,HeLa cells; HeLa cells transfected with pA2Oua^r-R887 (W887R),failed to survive
same,time to death of cells in ouabain-containing media,"HeLa cells; mock transfected HeLa cells (wild-type ATP1A2, non-ouabain resistant)",36 to 48 h
same,cell survival under ouabain treatment,"HeLa cells; simulated heterozygous state, equal amount of wild-type and T378N mutant cDNAs",intermediate behaviour
same,cell survival under ouabain treatment,"HeLa cells; simulated heterozygous states, equal amounts of wild-type and mutant (P764 or R887) constructs",intermediate behavior
